Results from PMC11680018, “Study of Cytotoxicity of Spiro-Fused [3-Azabicyclo[3.1.0]hexane]oxindoles and Cyclopropa[a]pyrrolizidine-oxindoles Against Tumor Cell Lines” (Pharmaceuticals, 2024).
Read-outs that look alike come from different tables or passages of the source.

Assays:
[1] = system: human erythroleukemia (K562) cell line; assay: MTS cell proliferation assay, K562; format: cell-based; details: for IC50: Homo sapiens, MTS; for SI (selectivity index) K562: ratio of cytotoxicity PBMC / K562, calculated at 72 h
Experimental: (§1) Cancer cell lines are valuable in vitro model systems that are widely used in cancer research and drug discovery. Their use is mainly linked to their possibility to provide for experimental purposes an unlimited source of biological material. Here, the 24 and 72 h in vitro MTS assay was used to determine the antiproliferative activity of synthesized spiro-fused cyclopropa[a]pyrrolizidine-2,3′-oxindoles and [3-azabicyclo[3.1.0]hexane]-oxindoles against human erythroleukemia (K562), acute T cell leukemia (Jurkat), cervical carcinoma (HeLa), melanoma (Sk-mel-2), breast cancer adenocarcinoma (MCF-7) as well as mouse colon carcinoma (CT26) cell lines. […] The full results of these investigations are presented in the Supporting Information Figures S1–S6. […] An evaluation of the cytotoxicity of the selected compounds towards normal cells (peripheral blood mononuclear cells) was performed additionally to understand their respective relative selectivities. The selectivity index was obtained using the ratio of measured cytotoxicity between the PBMC cells and each of the cancer cell lines, and the results are presented in Table 3.
(§2) The human erythroleukemia (K-562), cervical carcinoma (HeLa) as well as mouse colon carcinoma (CT26) cell lines were obtained from the Bank of Cell Cultures of the Institute of Cytology of the Russian Academy of Sciences; the human melanoma (Sk-mel-2) cell line was obtained from the Bank of Cell Cultures of the Institute of Cytology and Genetics, Siberian Branch of the Russian Academy of Sciences. The acute T cell leukemia (Jurkat) cell line was obtained from the Bank of Cell Cultures of the Institute of Immunology of the Russian Academy of Medical Sciences. The peripheral blood mononuclear cells (PBMC) were isolated from the blood of healthy donors. K-562, Jurkat, MCF-7, PBMC and CT26 cells were grown on RPMI medium (Hyclone, GE Healthcare Life Sciences, Logan, UT, USA) supplemented with 10% (v/v) fetal bovine serum (Hyclone, GE Healthcare Life Sciences, Logan, UT, USA) and gentamicin (Sigma-Aldrich, St. Louis, MO, USA) at 37 °C in a humidified atmosphere with 5% CO2. HeLa and Sk-mel-2 cells were cultured with the same supplements and conditions in DMEM medium (Hyclone, GE Healthcare Life Sciences, Logan, UT, USA).
(§3) To evaluate the in vitro toxicity of the compounds synthesized, cells were seeded into 96-well plates at a density of 5 × 10^3 cells per well. On the next day, the tested compounds were added to the wells at concentrations ranging from 1 to 30 μg/mL, followed by incubation for 1 and 3 days. Cell proliferation was determined by adding 20 μL of MTS reagent (BioVision, Milpitas, CA, USA) stock solution per well. The plates were incubated for 2 h at 37 °C in a humidified, 5% CO2 atmosphere. The plates were then read at 495 nm using a plate spectrophotometer (Multiskan GO, Thermo Fisher Scientific, Waltham, MA, USA). All samples were measured in triplicate.

[2] = system: cervical carcinoma (HeLa) cell line; assay: MTS cell proliferation assay, HeLa; format: cell-based, human; details: for IC50: Homo sapiens, HeLa, MTS; for SI (selectivity index) HeLa: ratio of cytotoxicity PBMC / HeLa, calculated at 72 h
Experimental: as §1, §2, §3

[3] = system: acute T cell leukemia (Jurkat) cell line; assay: MTS cell proliferation assay, Jurkat; format: cell-based, human; details: for IC50: Homo sapiens, Jurkat, MTS; for SI (selectivity index) Jurkat: ratio of cytotoxicity PBMC / Jurkat, calculated at 72 h
Experimental: as §1, §2, §3

[4] = system: breast cancer adenocarcinoma (MCF-7) cell line; assay: MTS cell proliferation assay, MCF-7; format: cell-based, human; details: for IC50: Homo sapiens, MTS; for SI (selectivity index) MCF-7: ratio of cytotoxicity PBMC / MCF-7, calculated at 72 h
Experimental: as §1, §2, §3

[5] = system: melanoma (Sk-mel-2) cell line; assay: MTS cell proliferation assay, Sk-mel-2; format: cell-based, human; details: for IC50: Homo sapiens, MTS; for SI (selectivity index) Sk-mel-2: ratio of cytotoxicity PBMC / Sk-mel-2, calculated at 72 h
Experimental: as §1, §2, §3

[6] = system: mouse colon carcinoma (CT26) cell line; assay: MTS cell proliferation assay, CT26; format: cell-based; details: for IC50: Mus musculus, MTS; for SI (selectivity index) CT26: ratio of cytotoxicity PBMC / CT26, calculated at 72 h
Experimental: as §1, §2, §3

[7] = system: peripheral blood mononuclear cells (PBMC); assay: MTS cytotoxicity towards normal cells, PBMC; format: cell-based; details: Homo sapiens
Experimental: as §1, §2, §3

[8] = system: HeLa cells actin cytoskeleton; assay: Actin cytoskeleton staining, confocal microscopy, HeLa; format: cell-based, human; details: 10 μg/mL, 24 h
Experimental: It was found using confocal microscopy that incubation with spiro-fused [3-azabicyclo[3.1.0]hexane]oxindoles 4, 8, 17, 18, 22, 24 and cyclopropa[a]pyrrolizidine-2,3′-oxindole 2 led to significant changes in the HeLa cells’ actin cytoskeleton structure leading to the disappearance of stress fibers (granular actin was distributed diffusely in the cytoplasm in up to 38% of treated cells) and changes in the number of filopodia-like deformations (reduced from 93% in control cells to 64% after treatment). The impact on the Sk-mel-2 cells’ actin cytoskeleton structure was even greater: granular actin was distributed diffusely in the cytoplasm in up to 90% of treated cells while the number of filopodia-like deformations was reduced by up to 23%. Such changes in the cytoskeleton may indicate a change in the motor activity of cells, which may indicate a decrease in the ability of tumor cells to metastasize.
HeLa cells were seeded at a density of 2 × 10^5 cells per dish onto a petri dish with cover slips and incubated for 24 h. After that, cells were treated with chosen compounds (10 μg/mL) for 24 h. The medium was removed and cells were fixed with 4% paraformaldehyde (Sigma-Aldrich, St. Louis, MO, USA), washed three times with PBS, and permeabilized with 0.3% Triton-X100 (Sigma-Aldrich, St. Louis, MO, USA). The cells were rinsed three times with PBS. Actin filaments (microfilaments) were stained with rhodamine–phalloidin (Invitrogen, Carlsbad, CA, USA) at 37 °C for 15 min. The samples were rinsed three times with PBS, followed by embedding in Fluoroshield medium (Sigma-Aldrich, St. Louis, MO, USA). Cells were imaged using an Axio Observer Z1 confocal microscope (Carl Zeiss MicroImaging GmbH, Jena, Germany). In each experiment, at least 30 cells were imaged. Images were analyzed by a pathologist blinded to the treatment mode used for each group using ImageJ software, 1.52v.

[9] = system: K562 cells; assay: Cell cycle analysis by flow cytometry; format: cell-based, human; details: 24 h; for K562 cells in SubG1 phase: control 4.5 ± 0.9; for K562 cells in G2/M phase: control 23.1 ± 1.7; for K562 cells in S phase: control 31.9 ± 1.0; for K562 cells in G0/G1 phase: control 40.5 ± 1.3
From the text: Since growth inhibition may be a result of cell cycle arrest at a particular point, the specific antiproliferative activity of several cycloadducts was further evaluated by flow cytometry to study their impact on the progression of the cell cycle in K562 cells. The assay utilizes propidium iodide-based staining of DNA content to distinguish and measure the accumulation of cells in each cell cycle phase (SubG, G0/G1, S and G2/M).
The distribution of K562 cells in the G0/G1-, S- and G2/M-phases of the cell cycle was obtained by quantification of DNA content using flow cytometry in DAPI-stained cells. Briefly, cells were seeded at a density of 5 × 10^4 cells per well in 24-well plates. […] After incubation with drugs, the cells were harvested by pipetting. This was followed by treatment with 0.2 mg/mL saponin (Fluka, Waltham, MA, USA) and 0.05 mg/mL DAPI (Thermo scientific, Rockford, IL, USA). After washing, the samples were analyzed using a standard flow cytometer (BD FACSCanto II, Becton Dickinson, San Jose, CA, USA). A total of 10,000 events were acquired for the samples. Data processing was performed using the BD FACSDiva 9.0 software.

[10] = system: human melanoma (Sk-mel-2) cell line; assay: Cell motility by scratch test; format: cell-based; details: 10 μg/mL, 36 h, serum-free DMEM; nontreated cells 69.5 ± 17.2
Experimental: To assess the potential ability of spiro-fused [3-azabicyclo[3.1.0]hexane]oxindoles 4, 11, 12, 18, 24 and cyclopropa[a]pyrrolizidine-2,3′-oxindole 2 to inhibit metastasis associated with cell motility, a scratch test was performed on the human melanoma (Sk-mel-2) cell line. Different fields were analyzed by bright field, and each scratch area was photographed at 0 and 36 h for non-toxic and fast cell visualization. Nontreated Sk-mel-2 cells filled 69.5 ± 17.2, 41.5 ± 5.3, 59.7 ± 8.1, 49.3 ± 5.3, 43.0 ± 12.6, 26.1 ± 2.5 and 55.9 ± 8.6% of the scratched strip while under treatment with spiro-fused oxindole derivatives 2, 4, 11, 12, 18 and 24 cells, respectively.
Cells were seeded at a density of 5 × 10^5 cells per dish onto petri dishes and grown to confluency. A 200 μL pipette tip was used to make scratch wounds and detached cells were removed after that by washing with phosphate-buffered saline. Culture media was replaced with serum-free DMEM in order to inhibit cell proliferation. Compounds to be screened were added at a dose of 10 μg/mL to the cultures and incubated for 36 h. Different fields were analyzed by bright field, and each scratch area was photographed at 0 and 36 h. Images were captured using an Axio Observer Z1 confocal microscope (Carl Zeiss MicroImaging GmbH, Jena, Germany). The percent of wound closure in five randomly chosen fields was calculated with ImageJ software, 1.52v.

[11] = read-out: IC50 K562 24 h, K562, 24 h
[12] = K562, 72 h, read-out: IC50 K562 72 h
[13] = read-out: IC50 Jurkat 24 h, 24 h
[14] = 72 h, read-out: IC50 Jurkat 72 h
[15] = MCF7, read-out: IC50 MCF-7 24 h, MCF-7, 24 h
[16] = MCF7, MCF-7, 72 h, read-out: IC50 MCF-7 72 h
[17] = read-out: IC50 Sk-mel-2 24 h, Sk-mel-2, 24 h
[18] = Sk-mel-2, 72 h, read-out: IC50 Sk-mel-2 72 h
[19] = read-out: IC50 CT26 24 h, CT26, 24 h
[20] = CT26, 72 h, read-out: IC50 CT26 72 h

SMILES	IC50 [1, 11] [µM]	IC50 [1, 12] [µM]	IC50 ([2]; read-out: IC50 HeLa 24 h, 24 h) [µM]	IC50 ([2]; 72 h, read-out: IC50 HeLa 72 h) [µM]	IC50 [3, 13] [µM]	IC50 [3, 14] [µM]	IC50 [4, 15] [µM]	IC50 [4, 16] [µM]	IC50 [5, 17] [µM]	IC50 [5, 18] [µM]	IC50 [6, 19] [µM]	IC50 [6, 20] [µM]	SI (selectivity index) K562 [1]	SI (selectivity index) HeLa [2]	SI (selectivity index) Jurkat [3]	SI (selectivity index) MCF-7 [4]	SI (selectivity index) Sk-mel-2 [5]	SI (selectivity index) CT26 [6]	IC50 ([7]; 72 h, read-out: IC50 PBMC 72 h) [µM]	IC50 ([7]; read-out: IC50 PBMC 24 h, 24 h) [µM]	also measured
COC(=O)C1C2(c3ccccc3)C(Cc3c[nH]c4ccccc34)NC3(C(=O)Nc4ccccc43)C12c1ccccc1 (centres unmarked) [Compound 11]	7 ± 1	7 ± 1	15 ± 2	22 ± 2	–	–	–	–	33 ± 3	15 ± 1	> 40	19 ± 2	–	–	–	–	–	–	–	–	Part of the scratched strip filled by Sk-mel-2 cells [10]: 49.3 ± 5.3%
COC(=O)C1C2(c3ccccc3)C3CCCN3C3(C(=O)Nc4ccc(Cl)cc43)C12c1ccccc1 (centres unmarked) [Compound 12]	–	–	–	–	–	–	–	–	–	–	–	–	–	–	–	–	–	–	–	–	Part of the scratched strip filled by Sk-mel-2 cells [10]: 43.0 ± 12.6%

Second part, led by results:

IC50 [1, 11] [µM]	IC50 [1, 12] [µM]	IC50 ([2]; read-out: IC50 HeLa 24 h, 24 h) [µM]	IC50 ([2]; 72 h, read-out: IC50 HeLa 72 h) [µM]	IC50 [3, 13] [µM]	IC50 [3, 14] [µM]	IC50 [4, 15] [µM]	IC50 [4, 16] [µM]	IC50 [5, 17] [µM]	IC50 [5, 18] [µM]	IC50 [6, 19] [µM]	IC50 [6, 20] [µM]	SMILES	SI (selectivity index) K562 [1]	SI (selectivity index) HeLa [2]	SI (selectivity index) Jurkat [3]	SI (selectivity index) MCF-7 [4]	SI (selectivity index) Sk-mel-2 [5]	SI (selectivity index) CT26 [6]	IC50 ([7]; 72 h, read-out: IC50 PBMC 72 h) [µM]	IC50 ([7]; read-out: IC50 PBMC 24 h, 24 h) [µM]	also measured
> 40	12 ± 1	> 40	23 ± 2	21 ± 2	4 ± 1	> 40	> 40	> 40	23 ± 2	> 40	39 ± 3	CC(C)CC1NC2(C(=O)Nc3ccccc32)C2(c3ccccc3)C(c3ccccc3)C12c1ccccc1 (centres unmarked) [Compound 22]	5	3	16	1	3	2	64 ± 6	132 ± 16	HeLa cells with filopodia-like deformations ([8]; control cells 93%, lowest value over the compounds): ≥ 64%; HeLa cells with granular actin distributed diffusely in the cytoplasm (stress fibers disappeared) ([8]; maximum over the compounds): up to 38%
> 40	21 ± 2	> 40	> 40	25 ± 2	12 ± 1	> 40	> 40	> 40	> 40	> 40	> 40	CC[C@H](C)C1NC2(C(=O)Nc3ccccc32)C2(c3ccccc3)C(c3ccccc3)C12c1ccccc1 (some centres unmarked) [Compound 23]	8	3	13	3	3	3	165 ± 16	177 ± 20	–
16 ± 3	1 ± 0.4	4 ± 1	1 ± 0.1	–	–	–	–	–	–	19 ± 3	6 ± 1	COc1cccc2c1C(=O)c1c(O)c3c(c(O)c1C2=O)C[C@@](O)(C(=O)CO)C[C@@H]3O[C@H]1C[C@H](N)[C@H](O)[C@H](C)O1 [Doxorubicin, reference compound]	9	9	–	–	–	2	9 ± 1	11 ± 1	K562 cells in SubG1 phase ([9]; 1 μg/mL): 43.0 ± 1.0%; K562 cells in G2/M phase ([9]; 1 μg/mL): 2.2 ± 0.3%; K562 cells in S phase ([9]; 1 μg/mL): 8.8 ± 1.7%; K562 cells in G0/G1 phase ([9]; 1 μg/mL): 45.6 ± 0.8%; K562 cells in SubG1 phase ([9]; 5 μg/mL): 93.1 ± 0.7%; K562 cells in G2/M phase ([9]; 5 μg/mL): 0.2 ± 0.1%; K562 cells in S phase ([9]; 5 μg/mL): 0.8 ± 0.1%; K562 cells in G0/G1 phase ([9]; 5 μg/mL): 5.9 ± 0.6%
